Experiment: Biodistribution of 99mTc complexes in mice
Assay type: in vivo, Balb/c mice
Excerpt: A series of derivatives incorporating carboxyl and phenolate donor groups (1-6) were synthesised by literature method and their radiolabelling characteristic and biological behaviour evaluated. Initial work involved an investigation of radiochemical properties of the ^99m Tc complexes of the ligands and their biodistribution in rats and mice (see Tables 1-6 and 8-12).
A typical method of radiolabelling of the chelator was achieved by dissolving the chelator in a basic solution of saline. The pH was then adjusted to approx. 6 with HCl. Excess stannous chloride was added to the resultant solution followed by one equivalent volume of sodium ^99m TcO4 (10-50 mCi/ml). Final concentration of the chelator was approx. 1 mg/ml. The efficacy of labelling was determined by ITLC-SG. For each product only one main radiochemical species was observed. Each complex was diluted to 15 μCi/100 μl with saline. […] (See FIGS. 1A and 1B).

## O=C(O)CN(CCN(CC(=O)O)CC(=O)Nc1ccc(Cl)cc1O)CC(=O)Nc1ccc(Cl)cc1O [Compound 2]
1 min
  biodistribution GIT: 3.74 % Injected dose
  biodistribution blood: 23.14 % Injected dose
  biodistribution bone: 7.88 % Injected dose
  biodistribution heart: 0.49 % Injected dose
  biodistribution kidney: 8.04 % Injected dose
  biodistribution liver: 14.68 % Injected dose
  biodistribution lungs: 1.36 % Injected dose
  biodistribution muscle: 19.67 % Injected dose
  biodistribution skin: 13.37 % Injected dose
  biodistribution spleen: 0.19 % Injected dose
  biodistribution stomach: 0.67 % Injected dose
  biodistribution tail: 4.05 % Injected dose
  biodistribution urine: 0.09 % Injected dose
3 min
  biodistribution GIT: 4.86 % Injected dose
  biodistribution blood: 14.96 % Injected dose
  biodistribution bone: 6.29 % Injected dose
  biodistribution heart: 0.34 % Injected dose
  biodistribution kidney: 10.44 % Injected dose
  biodistribution liver: 14.52 % Injected dose
  biodistribution lungs: 1.19 % Injected dose
  biodistribution muscle: 14.89 % Injected dose
  biodistribution skin: 13.1 % Injected dose
  biodistribution spleen: 0.16 % Injected dose
  biodistribution stomach: 0.998 % Injected dose
  biodistribution tail: 6.89 % Injected dose
  biodistribution urine: 2.78 % Injected dose
5 min
  biodistribution GIT: 3.38 % Injected dose
  biodistribution blood: 7.4 % Injected dose
  biodistribution bone: 2.99 % Injected dose
  biodistribution heart: 0.22 % Injected dose
  biodistribution kidney: 5.45 % Injected dose
  biodistribution liver: 7.75 % Injected dose
  biodistribution lungs: 0.72 % Injected dose
  biodistribution muscle: 6.73 % Injected dose
  biodistribution skin: 7.96 % Injected dose
  biodistribution spleen: 0.07 % Injected dose
  biodistribution stomach: 0.6 % Injected dose
  biodistribution tail: 30.12 % Injected dose
  biodistribution urine: 1.06 % Injected dose
10 min
  biodistribution GIT: 8.11 % Injected dose
  biodistribution blood: 7.15 % Injected dose
  biodistribution bone: 2.76 % Injected dose
  biodistribution heart: 0.15 % Injected dose
  biodistribution kidney: 5.14 % Injected dose
  biodistribution liver: 7.95 % Injected dose
  biodistribution lungs: 0.53 % Injected dose
  biodistribution muscle: 8.73 % Injected dose
  biodistribution skin: 11.02 % Injected dose
  biodistribution spleen: 0.06 % Injected dose
  biodistribution stomach: 1.3 % Injected dose
  biodistribution tail: 18.31 % Injected dose
  biodistribution urine: 2.67 % Injected dose
30 min
  biodistribution GIT: 16.24 % Injected dose
  biodistribution blood: 3.58 % Injected dose
  biodistribution bone: 2.27 % Injected dose
  biodistribution heart: 0.09 % Injected dose
  biodistribution kidney: 4 % Injected dose
  biodistribution liver: 5.71 % Injected dose
  biodistribution lungs: 0.43 % Injected dose
  biodistribution muscle: 5.48 % Injected dose
  biodistribution skin: 5.58 % Injected dose
  biodistribution spleen: 0.05 % Injected dose
  biodistribution stomach: 2.06 % Injected dose
  biodistribution tail: 7.67 % Injected dose
  biodistribution urine: 3.84 % Injected dose

— US5807535A, “Metal complexes of hydroxyaryl containing aminocarboxylic acid chelating agents” (Australian Nuclear Science & Technology Organisation, priority 1992, dated 1998)
